Laboratory results published in patent publication US20240293558A1, “KRAS INHIBITOR CONJUGATES” (Erasca, Inc., priority 2021, published 2024).
Like-named read-outs stand apart in the source and are kept apart here.

Assays:
[1] = molecular target: T1, KRas G12D fused to HiBiT peptide (Homo sapiens, UniProt P01116, G12D); experiment: ASPC-1 HiBit assay to determine G12D degradation; format: cell-based; settings: AsPC-1 HiBiT cells, 24-hour incubation; read-out: ASPC-1 HiBit DC50 (C)
T1 construct: endogenous in cells; host or cells: AsPC-1 HiBiT knock-in single clone (Cas9 RNP + ssODN)
In short: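 Homozygous AsPC-1 clone with N-terminal HiBiT knock-in on endogenous KRas G12D, 24 h compound exposure, top dose 10 μM, 3-fold, 10 points, 1% DMSO. Lytic HiBiT luminescence normalised to DMSO and inhibitor controls gives % degradation; DC50 from 4-parameter fit after hook-effect points removed.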

[2] = molecular target: T2, KRAS G12D (Homo sapiens, UniProt P01116, G12D); experiment: In-vitro RAS-RAF binding assay (RRB), HTRF/FRET; format: biochemical; set-up: Biotinylated KRAS protein amino acids 1-169 (produced at Erasca); made in house; settings: read-out: Inhibition of RAS-RAF Binding (in-vitro) KRAS (G12D) IC50
In short: (§1)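 Biotinylated KRAS 1-169 (streptavidin-terbium donor, 30 nM) and GST-cRAF RBD (anti-GST d2 acceptor, 30 nM) in HEPES pH 7.5, NaCl, MgCl2, DTT buffer. After compound incubation, SOS1 catalytic domain plus GTPgS drive 60 min nucleotide exchange. HTRF FRET read at equilibrium, in duplicate.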
Target sequence in this assay (P01116 1-169 isoform P01116-2 G12D): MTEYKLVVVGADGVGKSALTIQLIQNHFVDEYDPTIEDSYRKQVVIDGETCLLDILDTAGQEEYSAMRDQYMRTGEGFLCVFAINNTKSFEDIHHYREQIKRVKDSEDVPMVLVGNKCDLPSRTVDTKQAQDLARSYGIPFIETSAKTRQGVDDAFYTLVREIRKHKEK

[3] = molecular target: T3, KRAS (WT) (Homo sapiens, UniProt P01116); experiment: In-vitro RAS-RAF binding assay (RRB), HTRF/FRET; format: biochemical; settings: read-out: Inhibition of RAS-RAF Binding (in-vitro) KRAS (WT) IC50
T3 construct: Biotinylated KRAS protein amino acids 1-169 (produced at Erasca); made in house
In short: as §1

[4] = molecular target: T2, KRAS G12D; experiment: Degradation of KRas G12D in AsPC-1 cells, Western blot; format: cell-based; set-up: endogenous in cells; host or cells: AsPC-1 (ATCC CRL-1682); settings: ASPC-1 cell line after 24 h treatment (FIG. 11); read-out: KRAS wild type degradation DC50
Target sequence in this assay (P01116 1-188 isoform P01116-2 G12D): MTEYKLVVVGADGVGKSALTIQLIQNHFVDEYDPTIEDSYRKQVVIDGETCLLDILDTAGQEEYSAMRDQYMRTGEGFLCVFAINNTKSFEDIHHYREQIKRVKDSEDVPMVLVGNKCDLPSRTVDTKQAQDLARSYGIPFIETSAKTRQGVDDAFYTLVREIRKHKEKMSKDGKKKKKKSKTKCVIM

[5] = Table 2, average of multiple runs of each compound

T3 sequence (P01116 1-169 isoform P01116-2): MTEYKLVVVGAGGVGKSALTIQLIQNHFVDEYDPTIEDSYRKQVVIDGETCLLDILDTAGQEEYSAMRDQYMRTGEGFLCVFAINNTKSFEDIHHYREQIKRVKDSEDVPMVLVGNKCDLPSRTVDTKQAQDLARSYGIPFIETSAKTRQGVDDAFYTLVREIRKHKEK
T1 sequence (P01116 1-188 isoform P01116-2 G12D): as the sequence (P01116 1-188 isoform P01116-2 G12D) above

Which DC50 [1] does the source give for `C[C@H](NC(=O)[C@@H]1C[C@@H](O)CN1C(=O)[C@@H](NC(=O)CCOCCCN1CCC[C@H]1COc1nc(N2CC3CCC(C2)N3)c2cc(C(F)(F)F)c(-c3ccc(F)c4sc(N)c(C#N)c34)c(F)c2n1)C(C)(C)C)c1ccc(-c2c(F)cccc2F)cc1` (single isomer, unassigned) [Example 20] here?
The DC50 was 22.7 nM.

What about the IC50 [2, 5] of the same molecule?
The IC50 was 8.52 nM.

What about the IC50 [3, 5] of the same molecule?
Its IC50 is 26.9 nM.

What about the DC50 [4] of the same molecule?
The DC50 was 8.2 nM.

With `Cc1ncsc1-c1ccc([C@H](C)NC(=O)[C@@H]2C[C@@H](O)CN2C(=O)[C@@H](NC(=O)CCOCCCN2CCCC2COc2nc(N3CC4CCC(C3)N4)c3cc(Cl)c(-c4ccc(F)c5sc(N)c(C#N)c45)c(F)c3n2)C(C)(C)C)cc1` (stereo partly drawn) [Example 8, (2S,4R)-1-[(2S)-2-[3-[3-[2-[[7-(2-amino-3-cyano-7-fluoro-benzothiophen-4-yl)-6-chloro-4-(3,8-diazabicyclo[3.2.1]octan-3-yl)-8-fluoro-quinazolin-2-yl]oxymethyl]pyrrolidin-1-yl]propoxy]propanoylamino]-3,3-dimethyl-butanoyl]-4-hydroxy-N-[(1S)-1-[4-(4-methylthiazol-5-yl)phenyl]ethyl]pyrrolidine-2-carboxamide] as the molecule, how does the DC50 [1] read?
Its DC50 is 126 nM.

And the IC50 ([2]; Table 1)?
The IC50 was 11 nM.

What about the IC50 [2, 5] of the same molecule?
Its IC50 is 8.18 nM.

What about the IC50 ([3]; Table 1) of the same molecule?
Its IC50 is 51 nM.

And the IC50 [3, 5]?
Its IC50 is 25.9 nM.
